The source of these data is publication PMC10257182, “Discovery of senolytics using machine learning” (Nature Communications, 2023).

Several values for one entry are separate records, joined by “and”; a condition that tells them apart may be missing. Equal values may be shown once. Where a name gives a salt, the structure may show the parent alone. Read-outs that look alike come from different tables or passages of the source.

The assay deals with senescent IMR90 ER:RAS cells (4-OHT-induced). Put plainly: Nuclei count (Hoechst, high content imaging) senolytic assay, oncogene-induced senescence (OIS) model, senescent cells. The assay is classed as cell-based, human. To be noted: for viability at 10 µM / viability at 4.677 µM / viability at 2.188 µM / viability at 1 µM / viability at 0.4677 µM / viability at 0.2188 µM / viability at 0.1 µM / viability at 0.04677 µM / viability at 0.02188 µM / viability at 0.01 µM: Homo sapiens. The method in brief: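 Compared non-senescent and senescent IMR90 ER:RAS cultures (senescence induced with 4-OHT at 100 nM final); cells seeded 24 h before dosing, then exposed 72 h to compounds, 10-point […] range 10 μM–10 nM, triplicate. Fixed, Hoechst-stained, nuclei counted by high-content imaging; drop versus untreated reflects cell death.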

Where [1] appears, read: IMR-90, 72 h, Senescent, log (dose) [M] -5, 72 h, mean n=3 (Fig 3C), read-out: Mean % Cell Survival.
Setting [2] is: IMR-90, 72 h, Senescent, log (dose) [M] -5.33, 72 h, mean n=3 (Fig 3C), read-out: Mean % Cell Survival.
Setting [3] is: IMR-90, 72 h, Senescent, log (dose) [M] -5.66, 72 h, mean n=3 (Fig 3C), read-out: Mean % Cell Survival.
The mark [4] stands for this setting: IMR-90, 72 h, Senescent, log (dose) [M] -6, 72 h, mean n=3 (Fig 3C), read-out: Mean % Cell Survival.
Setting [5] is: IMR-90, 72 h, Senescent, log (dose) [M] -6.33, 72 h, mean n=3 (Fig 3C), read-out: Mean % Cell Survival.
The mark [6] stands for this setting: IMR-90, 72 h, Senescent, log (dose) [M] -6.66, 72 h, mean n=3 (Fig 3C), read-out: Mean % Cell Survival.
[7] abbreviates: IMR-90, 72 h, Senescent, log (dose) [M] -7, 72 h, mean n=3 (Fig 3C), read-out: Mean % Cell Survival.
The mark [8] stands for this setting: IMR-90, 72 h, Senescent, log (dose) [M] -7.33, 72 h, mean n=3 (Fig 3C), read-out: Mean % Cell Survival.
[9] abbreviates: IMR-90, 72 h, Senescent, log (dose) [M] -7.66, 72 h, mean n=3 (Fig 3C), read-out: Mean % Cell Survival.
Where [10] appears, read: IMR-90, 72 h, Senescent, log (dose) [M] -8, 72 h, mean n=3 (Fig 3C), read-out: Mean % Cell Survival.

For the compound `C=Cc1c(C)c2cc3nc(cc4[nH]c(cc5nc(cc1[nH]2)C(C)=C5CCC(=O)O)c(CCC(=O)OC)c4C)[C@@]1(C)C3=CC=C(C(=O)OC)[C@H]1C(=O)OC` [Verteporfin, verteporfin, reference compound], the “% Cell Survival” value (Senescent cells, log (dose) [M] -5, individual replicates, SUP FIG 4C) is 93.9435% and 91.1111% and 111.269%; the “% Cell Survival” value (Senescent cells, log (dose) [M] -5.33, individual replicates, SUP FIG 4C) is 81.5612% and 99.085% and 87.8238%; the “% Cell Survival” value (Senescent cells, log (dose) [M] -5.66, individual replicates, SUP FIG 4C) was 114.536% and 91.2418% and 98.8342%; the “% Cell Survival” value (Senescent cells, log (dose) [M] -6, individual replicates, SUP FIG 4C) was 68.7752% and 100.915% and 109.974%; the “% Cell Survival” value (Senescent cells, log (dose) [M] -6.33, individual replicates, SUP FIG 4C) is 85.8681% and 55.5556% and 108.549%; the “% Cell Survival” value (Senescent cells, log (dose) [M] -6.66, individual replicates, SUP FIG 4C) is 84.253% and 107.32% and 95.2073%. For the same compound, the “% Cell Survival” value runs as follows: (Senescent cells, log (dose) [M] -7, individual replicates, SUP FIG 4C) 86.541% and 87.8431% and 90.544%; (Senescent cells, log (dose) [M] -7.33, individual replicates, SUP FIG 4C) 95.5585% and 120.915% and 93.9119%; (Senescent cells, log (dose) [M] -7.66, individual replicates, SUP FIG 4C) 98.3849% and 123.268% and 87.8238%; (Senescent cells, log (dose) [M] -8, individual replicates, SUP FIG 4C) 86.541% and 113.464% and 76.6839%; (Senescent, log (dose) [M] -5) 113.825% and 103.66% and 137.931%; (Senescent, log (dose) [M] -5.33) 79.9635% and 100.131% and 115.557%. The “% Cell Survival” value by setting is: (Senescent, log (dose) [M] -5.66) 102.923% and 109.085% and 134.403%; (Senescent, log (dose) [M] -6) 99.1474% and 91.7647% and 157.418%; (Senescent, log (dose) [M] -6.33) 98.8429% and 106.993% and 136.808%; (Senescent, log (dose) [M] -6.66) 92.57% and 116.536% and 113.873%; (Senescent, log (dose) [M] -7) 103.898% and 73.5294% and 123.657%; (Senescent, log (dose) [M] -7.33) 62.363% and 86.2092% and 118.605%. The “% Cell Survival” value (Senescent, log (dose) [M] -7.66) is 100.061% and 91.4379% and 129.27%; the “% Cell Survival” value (Senescent, log (dose) [M] -8) is 96.6504% and 87.3856% and 116.84%. The “Mean % Cell Survival” value was 98.7747% (Senescent, log (dose) [M] -5, 72 h, mean n=3 (Fig 3C)); 89.49% (Senescent, log (dose) [M] -5.33, 72 h, mean n=3 (Fig 3C)); 101.537% (Senescent, log (dose) [M] -5.66, 72 h, mean n=3 (Fig 3C)); 93.2215% (Senescent, log (dose) [M] -6, 72 h, mean n=3 (Fig 3C)); 83.3243% (Senescent, log (dose) [M] -6.33, 72 h, mean n=3 (Fig 3C)); 95.5935% (Senescent, log (dose) [M] -6.66, 72 h, mean n=3 (Fig 3C)). The “Mean % Cell Survival” value is, setting by setting: (Senescent, log (dose) [M] -7, 72 h, mean n=3 (Fig 3C)) 88.3094%; (Senescent, log (dose) [M] -7.33, 72 h, mean n=3 (Fig 3C)) 103.462%; (Senescent, log (dose) [M] -7.66, 72 h, mean n=3 (Fig 3C)) 103.159%; (Senescent, log (dose) [M] -8, 72 h, mean n=3 (Fig 3C)) 92.2297%.

Consider `CC[C@]1(O)C[C@@H]2CN(CCc3c([nH]c4ccccc34)[C@@](C(=O)OC)(c3cc4c(cc3OC)N(C)[C@H]3[C@@](O)(C(=O)OC)[C@H](OC(C)=O)[C@]5(CC)C=CCN6CC[C@]43[C@@H]65)C2)C1` [Vinblastine sulfate, vinblastine sulfate, reference compound], for which the viability at 10 µM reads like this: under setting [1], 54.4%; (IMR-90, Senescent, log (dose) [M] -5, read-out: % Cell Survival) 89.1%. The viability at 4.677 µM under setting [2] came out at 77.2% and the viability at 4.677 µM (IMR-90, Senescent, log (dose) [M] -5.33, read-out: % Cell Survival) came to 88%. Further, the viability at 2.188 µM under setting [3] stood at 58.1% and the viability at 2.188 µM (IMR-90, Senescent, log (dose) [M] -5.66, read-out: % Cell Survival) was determined as 86.9%. The viability at 1 µM was 67.1% under setting [4]; 70.9% (IMR-90, Senescent cells, log (dose) [M] -6, individual replicates, SUP FIG 4C, read-out: % Cell Survival); 68.2% (IMR-90, Senescent, log (dose) [M] -6, read-out: % Cell Survival). The viability at 0.4677 µM under setting [5] is 61.7% and the viability at 0.4677 µM (IMR-90, Senescent, log (dose) [M] -6.33, read-out: % Cell Survival) was found to be 96.2%. The viability at 0.2188 µM reads like this: under setting [6], 87%; (IMR-90, Senescent, log (dose) [M] -6.66, read-out: % Cell Survival) 103%. For the same compound, the viability at 0.1 µM is, setting by setting: under setting [7], 73.9%; (IMR-90, Senescent, log (dose) [M] -7, read-out: % Cell Survival) 109%. In addition, the viability at 0.04677 µM worked out at 108% under setting [8] and 92.4% (IMR-90, Senescent, log (dose) [M] -7.33, read-out: % Cell Survival). Moreover, the viability at 0.02188 µM is 59.7% under setting [9] and 112% (IMR-90, Senescent, log (dose) [M] -7.66, read-out: % Cell Survival). The viability at 0.01 µM reads like this: under setting [10], 92.6%; (IMR-90, Senescent, log (dose) [M] -8, read-out: % Cell Survival) 114%.

For `CO[C@H]1C[C@@H]2CC[C@@H](C)[C@@](O)(O2)C(=O)C(=O)N2CCCC[C@H]2C(=O)O[C@H]([C@H](C)C[C@@H]2CC[C@H](n3cnnn3)[C@H](OC)C2)CC(=O)[C@H](C)/C=C(\C)[C@@H](O)[C@@H](OC)C(=O)[C@H](C)C[C@H](C)/C=C/C=C/C=C/1C` [Zotarolimus, zotarolimus, reference compound], under setting [1], the viability at 10 µM was determined as 111%. Besides, the viability at 4.677 µM under setting [2] came to 115%. Besides, the viability at 2.188 µM under setting [3] stood at 102%. The viability at 1 µM under setting [4] is 113%. Also, the viability at 0.4677 µM under setting [5] came out at 95.4%. Also, the viability at 0.2188 µM under setting [6] was found to be 95.9%. Further, the viability at 0.1 µM under setting [7] is 88.4%. Moreover, the viability at 0.04677 µM under setting [8] turned out to be 106%. Also, under setting [9], the viability at 0.02188 µM was found to be 116%. The viability at 0.01 µM under setting [10] stood at 104%.
